Experimental data taken from ChEMBL document CHEMBL3526091, “Pharmacokinetics, metabolism, and excretion of the glycogen synthase kinase-3 inhibitor LY2090314 in rats, dogs, and humans: a case study in rapid clearance by extensive metabolism with low circulating metabolite exposure” (Drug Metab Dispos, 2013).
One block for each compound: values may come before it.

Key:
Details in all cases: in vivo
[1] = Drug recovery in bile duct-cannulated Sprague-Dawley rat assessed as radioactivity in bile during 0 to 12 hrs treated with 5 mg/kg, iv LY2090314 for 30 mins; assay type: ADME, organism-based; set-up: dose 5 mg/kg, dosed compound name [14C]LY2090314, route intravenous
[2] = tested on: Plasma; assay: Drug recovery in beagle dog plasma assessed as radiochemical peak area treated with 5 mg/kg, iv LY2090314 for 30 mins after 2 hrs by radio analysis; assay type: ADME, organism-based, Canis lupus familiaris; set-up: dose 5 mg/kg, dosed compound name [14C]LY2090314, route intravenous
[3] = tested on: Plasma; assay: Drug recovery in beagle dog plasma assessed as radiochemical peak area treated with 5 mg/kg, iv LY2090314 for 30 mins after 0.5 hrs by radio analysis; assay type: ADME, organism-based, Canis lupus familiaris; set-up: dose 5 mg/kg, dosed compound name [14C]LY2090314, route intravenous
[4] = Drug recovery in bile duct-intact beagle dog assessed as radioactivity in feces during 0 to 48 hrs treated with 5 mg/kg, iv LY2090314 for 30 mins; assay type: ADME, organism-based, Canis lupus familiaris; set-up: dose 5 mg/kg, dosed compound name [14C]LY2090314, route intravenous
[5] = Drug recovery in po dosed dog urine; assay type: ADME, organism-based, Canis lupus familiaris; set-up: dosed compound name Ruboxistaurin
[6] = Drug recovery in po dosed mouse feces; assay type: ADME, organism-based; set-up: dosed compound name Ruboxistaurin
[7] = Drug recovery in po dosed rat feces; assay type: ADME, organism-based; set-up: dosed compound name Ruboxistaurin
[8] = Drug recovery in po dosed human urine; assay type: ADME, organism-based; set-up: dosed compound name Ruboxistaurin
[9] = Drug recovery in po dosed rat urine; assay type: ADME, organism-based; set-up: dosed compound name Ruboxistaurin
[10] = Drug recovery in po dosed mouse urine; assay type: ADME, organism-based; set-up: dosed compound name Ruboxistaurin
[11] = Drug recovery in po dosed dog feces; assay type: ADME, organism-based, Canis lupus familiaris; set-up: dosed compound name Ruboxistaurin
[12] = Drug recovery in po dosed human feces; assay type: ADME, organism-based; set-up: dosed compound name Ruboxistaurin
[13] = Drug recovery in po dosed rat bile; assay type: ADME, organism-based; set-up: dosed compound name Ruboxistaurin

- Compound recovery [1]: 0%
Compound: O=C(O)CCNC(=O)N1CCn2cc(C3=C(c4cnc5ccccn45)C(=O)NC3=O)c3cc(F)cc(c32)C1

- Compound recovery [4]: 5.42%
- Compound recovery [2]: 18.81%
- Compound recovery [3]: 12.66%
Compound: O=C1NC(=O)C(c2c[n+](O[C@@H]3O[C@H](C(=O)O)[C@@H](O)[C@H](O)[C@H]3O)c3ccccn23)=C1c1cn2c3c(cc(F)cc13)CN(C(=O)N1CCCCC1)CC2

- Compound recovery [1]: 6.76%
Compound: O=C(CCNC(=O)N1CCn2cc(C3=C(c4cnc5ccccn45)C(=O)NC3=O)c3cc(F)cc(c32)C1)NCCS(=O)(=O)O

The remaining lines, values behind:

Compound: NC(=O)N1CCn2cc(C3=C(c4cnc5ccccn45)C(=O)NC3=O)c3cc(F)cc(c32)C1
- Compound recovery [1]: 4.15%
- Compound recovery [2]: 0%
- Compound recovery [3]: 0.1%

Compound: CN(C)C[C@@H]1CCn2cc(c3ccccc32)C2=C(C(=O)NC2=O)c2cn(c3ccccc23)CCO1 [RUBOXISTAURIN]
- Radiolabel recovery [5]: <= 4%
- Radiolabel recovery [6]: 83%
- Radiolabel recovery [7]: 83%
- Radiolabel recovery [8]: <= 4%
- Radiolabel recovery [9]: <= 4%
- Radiolabel recovery [10]: <= 4%
- Radiolabel recovery [11]: 83%
- Radiolabel recovery [12]: 83%
- Radiolabel recovery [13]: 59%
